Results from patent US20250074891A1 (Anaxis Pharma Pty Ltd., priority 2021, published 2025).

Assays:
Conditions in all cases: Table 35
RIP1 = RIP1 (Homo sapiens (Human), UniProt Q13546); test: KINOMEscan binding assay, RIP1
RIP3 = RIP3 (Homo sapiens (Human), UniProt Q9Y572); test: KINOMEscan binding assay, RIP3
Description: (§1) Kinase assays. For most assays, kinase-tagged T7 phage strains were grown in parallel in 24-well blocks in an E. coli host derived from the BL21 strain. E. coli were grown to log-phase and infected with T7 phage from a frozen stock (multiplicity of infection=0.4) and incubated with shaking at 32° C. until lysis (90-150 minutes).
(§2) The Hill Slope was set to −1.

MLKL (full length) = MLKL (full length) (Homo sapiens (Human), UniProt Q8NB16); test: KINOMEscan binding assay, MLKL (full length)
Description: as §1, §2

RIP3, sequence (Q9Y572 whole entry): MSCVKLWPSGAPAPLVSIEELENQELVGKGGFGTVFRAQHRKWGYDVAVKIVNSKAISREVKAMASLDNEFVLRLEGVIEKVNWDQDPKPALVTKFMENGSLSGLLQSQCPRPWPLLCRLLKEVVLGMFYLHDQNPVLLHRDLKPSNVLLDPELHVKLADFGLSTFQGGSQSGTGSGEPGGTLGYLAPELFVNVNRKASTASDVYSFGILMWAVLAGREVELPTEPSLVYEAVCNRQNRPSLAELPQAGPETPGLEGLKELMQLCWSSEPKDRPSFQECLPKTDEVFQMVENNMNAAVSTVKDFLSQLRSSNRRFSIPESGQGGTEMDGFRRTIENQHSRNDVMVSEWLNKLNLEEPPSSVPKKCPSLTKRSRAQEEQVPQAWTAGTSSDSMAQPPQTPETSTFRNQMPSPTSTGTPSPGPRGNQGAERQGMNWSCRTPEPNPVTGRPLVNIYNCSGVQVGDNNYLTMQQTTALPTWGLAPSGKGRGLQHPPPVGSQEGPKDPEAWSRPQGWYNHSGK
RIP1, sequence (Q13546 whole entry): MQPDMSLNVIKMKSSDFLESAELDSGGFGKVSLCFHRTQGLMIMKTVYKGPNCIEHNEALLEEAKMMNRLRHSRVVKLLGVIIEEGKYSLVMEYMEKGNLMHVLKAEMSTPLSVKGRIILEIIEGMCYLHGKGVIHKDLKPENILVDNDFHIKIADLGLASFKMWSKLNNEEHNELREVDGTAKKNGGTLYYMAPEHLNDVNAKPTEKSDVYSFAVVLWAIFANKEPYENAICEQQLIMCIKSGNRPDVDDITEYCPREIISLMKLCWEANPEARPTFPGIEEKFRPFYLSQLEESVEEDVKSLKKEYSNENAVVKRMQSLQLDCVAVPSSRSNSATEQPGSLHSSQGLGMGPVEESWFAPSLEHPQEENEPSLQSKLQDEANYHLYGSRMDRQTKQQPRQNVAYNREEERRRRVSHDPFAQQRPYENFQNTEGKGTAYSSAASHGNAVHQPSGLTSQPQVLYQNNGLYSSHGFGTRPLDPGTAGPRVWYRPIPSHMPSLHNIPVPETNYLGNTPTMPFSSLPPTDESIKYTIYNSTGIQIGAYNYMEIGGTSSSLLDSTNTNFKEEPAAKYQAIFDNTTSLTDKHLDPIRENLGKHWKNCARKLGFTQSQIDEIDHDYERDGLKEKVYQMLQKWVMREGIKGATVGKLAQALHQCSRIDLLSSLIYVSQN
MLKL (full length), sequence (Q8NB16 whole entry): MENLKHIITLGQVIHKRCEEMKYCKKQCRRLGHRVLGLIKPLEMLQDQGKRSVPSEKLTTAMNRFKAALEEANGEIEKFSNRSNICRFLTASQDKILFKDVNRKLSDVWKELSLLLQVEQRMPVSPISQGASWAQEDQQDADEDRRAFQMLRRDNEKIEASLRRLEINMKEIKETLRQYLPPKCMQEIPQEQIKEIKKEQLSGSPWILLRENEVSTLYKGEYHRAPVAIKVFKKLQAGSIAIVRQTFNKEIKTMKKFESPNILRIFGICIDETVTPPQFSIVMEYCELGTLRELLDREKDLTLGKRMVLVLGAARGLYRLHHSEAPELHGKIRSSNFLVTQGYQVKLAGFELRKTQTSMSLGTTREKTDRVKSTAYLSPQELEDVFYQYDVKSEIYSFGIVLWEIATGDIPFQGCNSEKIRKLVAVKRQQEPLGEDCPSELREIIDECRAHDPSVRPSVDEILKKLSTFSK

Compound	Kd (RIP1) [µM]	Kd (RIP3) [µM]	Kd (MLKL (full length)) [µM]
CCS(=O)(=O)Nc1ccc(-c2n[nH]c(Nc3cnccn3)c2C(N)=O)cc1OCc1ccccc1F [Compound 2, 3-(4-(ethylsulfonamido)-3-((2-fluorobenzyl)oxy)phenyl)-5-(pyrazin-2-ylamino)-1H-pyrazole-4-carboxamide]	> 30	> 30	–
CCS(=O)(=O)Nc1ccc(-c2n[nH]c(Nc3cccc(C(F)(F)F)n3)c2C(N)=O)cc1OCc1cccc(Cl)c1 [Compound 3, 3-(3-((3-chloro-benzyl)oxy)-4-(ethylsulfon-amido)phenyl)-5-((6-(trifluoro-methyl)pyridin-2-yl)amino)-1H-pyrazole-4-carboxamide]	> 30	> 30	–
CCS(=O)(=O)Nc1ccc(-c2n[nH]c(Nc3cccc(C(F)(F)F)n3)c2C(N)=O)cc1OCc1ccc(Cl)cc1 [Compound 4, 3-(3-((4-chloro-benzyl)oxy)-4-(ethylsulfon-amido)phenyl)-5-((6-(trifluoro-methyl)pyridin-2-yl)amino)-1H-pyrazole-4-carboxamide]	> 30	> 30	–
CCS(=O)(=O)Nc1ccc(-c2n[nH]c(Nc3cccnc3)c2C(N)=O)cc1OCc1ccc(F)cc1 [Compound 6, 3-(4-(ethylsulfonamido)-3-((4-fluorobenzyl)oxy)phenyl) 5-(pyridin-3-ylamino)-1H-pyrazole-4-carboxamide]	> 30	> 30	–
CCS(=O)(=O)Nc1ccc(-c2n[nH]c(Nc3cnccn3)c2C(N)=O)cc1OCC1CCN(C(C)=O)CC1 [Compound 7, 3-(3-((1-acetylpiperidin-4-yl)methoxy)-4-(ethylsulfonamido)phenyl)-5-(pyrazin-2-ylamino)-1H-pyrazole-4-carboxamide]	> 30	> 30	–
CCS(=O)(=O)Nc1ccc(-c2n[nH]c(Nc3cccc(C(F)(F)F)n3)c2C(N)=O)cc1OCc1ccc(F)cc1 [Compound 8, 3-(4-(ethylsulfon-amido)-3-((4-fluoro-benzyl)oxy)phenyl)-5-((6-(trifluoro-methyl)pyridin-2-yl)amino)-1H-pyrazole-4-carboxamide]	> 30	> 30	–
CCS(=O)(=O)Nc1ccc(-c2n[nH]c(Nc3cccc(C(F)(F)F)n3)c2C(N)=O)cc1OCC1CCCC1 [Compound 10, 3-(3-(cyclopentyl-methoxy)-4-(ethylsulfon-amido)phenyl)-5-((6-(trifluoro-methyl)pyridin-2-yl)amino)-1H-pyrazole-4-carboxamide]	> 30	> 30	–
CCS(=O)(=O)Nc1ccc(-c2n[nH]c(Nc3cccc(C(F)(F)F)n3)c2C(N)=O)cc1OCC(C)C [Compound 12, 3-(4-(ethylsulfonamido)-3-isobutoxyphenyl)-5-((6-(trifluoromethyl)pyridin-2-yl)amino)-1H-pyrazole-4-carboxamide]	> 30	> 30	–
CCS(=O)(=O)Nc1ccc(-c2n[nH]c(Nc3cccc(C(F)(F)F)n3)c2C(N)=O)cc1OCc1ccncc1 [Compound 16, 3-(4-(ethylsulfon-amido)-3-(pyridin-4-ylmethoxy)phenyl)-5-((6-(trifluoro-methyl)pyridin-2-yl)amino)-1H-pyrazole-4-carboxamide]	> 30	> 30	–
CCS(=O)(=O)Nc1ccc(-c2n[nH]c(Nc3ccccn3)c2C(N)=O)cc1OCC1CCCCC1 [Compound 35, 3-(3-(cyclohexyl-methoxy)-4-(ethylsulfon-amido)phenyl)-5-(pyridin-2-ylamino)-1H-pyrazole-4-carboxamide]	> 30	> 30	–
CCS(=O)(=O)Nc1ccc(-c2n[nH]c(Nc3ccccn3)c2C(N)=O)cc1OCC1CCCC1 [Compound 36, 3-(3-(cyclopentyl-methoxy)-4-(ethylsulfon-amido)phenyl)-5-(pyridin-2-ylamino)-1H-pyrazole-4-carboxamide]	–	> 30	–
CCS(=O)(=O)Nc1ccc(-c2n[nH]c(Nc3ccccn3)c2C(N)=O)cc1OCC(C)C [Compound 37, 3-(4-(ethylsulfonamido)-3-isobutoxyphenyl)-5-(pyridin-2-ylamino)-1H-pyrazole-4-carboxamide]	> 30	> 30	–
CCS(=O)(=O)Nc1ccc(-c2n[nH]c(Nc3cncc(C(F)(F)F)n3)c2C(N)=O)cc1 [Compound 44, 3-(4-(ethylsulfonamido)phenyl)-5-((6-(trifluoromethyl)pyrazin-2-yl)amino)-1H-pyrazole-4-carboxamide]	> 30	> 30	–
CCS(=O)(=O)Nc1ccc(-c2n[nH]c(Nc3cnccn3)c2C(N)=O)cc1OCC(C)C [Compound 45, 3-(4-(ethylsulfonamido)-3-isobutoxyphenyl)-5-(pyrazin-2-ylamino)-1H-pyrazole-4-carboxamide]	–	> 30	–
COCCS(=O)(=O)Nc1ccc(-c2n[nH]c(Nc3cccc(C(F)(F)F)n3)c2C(N)=O)cc1 [Compound 50, 3-(4-((2-methoxyethyl)sulfonamido)phenyl)-5-((6-(trifluoromethyl)pyridin-2-yl)amino)-1H-pyrazole-4-carboxamide]	> 30	> 30	–
CN(C)CCS(=O)(=O)Nc1ccc(-c2n[nH]c(Nc3cccc(C(F)(F)F)n3)c2C(N)=O)cc1 [Compound 51, 3-(4-((2-(dimethylamino)ethyl)sulfonamido)phenyl)-5-((6-(trifluoromethyl)pyridin-2-yl)amino)-1H-pyrazole-4-carboxamide]	> 30	> 30	–
Cc1ccc(CS(=O)(=O)Nc2ccc(-c3n[nH]c(Nc4cccc(C(F)(F)F)n4)c3C(N)=O)cc2)cc1 [Compound 57, 3-(4-((p-tolylmethyl)sulfonamido)phenyl)-5-((6-(trifluoromethyl)pyridin-2-yl)amino)-1H-pyrazole-4-carboxamide]	–	> 30	–
CCS(=O)(=O)Nc1ccc(-c2n[nH]c(Nc3cccnn3)c2C(N)=O)cc1 [Compound 64, 3-(4-ethanesulfonamidophenyl)-5-[(pyridazin-3-yl)amino]-1H-pyrazole-4-carboxamide]	> 30	> 30	–
CCS(=O)(=O)Nc1ccc(-c2n[nH]c(NC)c2C(N)=O)cc1 [Compound 119, 3-(4-(ethylsulfonamido)phenyl)-5-(methylamino)-1H-pyrazole-4-carboxamide]	–	> 30	–
CCS(=O)(=O)Nc1ccc(-c2n[nH]c(Nc3cnccn3)c2C(N)=O)cc1OCc1c(C)cc(F)cc1C [Compound 142, 3-(4-(ethylsulfonamido)-3-((4-fluoro-2,6-dimethylbenzyl)oxy)phenyl)-5-(pyrazin-2-ylamino)-1H-pyrazole-4-carboxamide]	–	> 30	–
NC(=O)c1c(-c2ccc(NS(=O)(=O)CCC(F)(F)F)cc2)n[nH]c1Nc1cccc(C(F)(F)F)n1 [Compound 189, 5-((6-(trifluoromethyl)pyridine-2-yl)amino)-3-(4-((3,3,3-trifluoropropyl)sulfonamido)phenyl)-1H-pyrazole-4-carboxamide]	> 30	–	< 0.01
CCS(=O)(=O)Nc1ccc(-c2n[nH]c(Nc3ccc(OC)nc3)c2C(N)=O)cc1OCc1ccc(F)cc1 [Compound 197, 3-(4-(ethylsulfonamido)-3-((4-fluorobenzyl)oxy)phenyl)-5-((6-methoxypyridin-3-yl)amino)-1H-pyrazole-4-carboxamide]	> 30	–	< 0.01
